Measurements: PMC8614864, “Bioengineered System for High Throughput Screening of Kv1 Ion Channel Blockers” (Bioengineering, 2021)
Read-outs that look alike come from different tables or passages of the source. Ends that are not written are not given here. linker L1 (45 aa) = not defined here

Assays:
Kv1 channels = settings: ref 17; cited from earlier work
Excerpt: Consequently, our flow cytometry approach can be used to screen unlabeled small organic blockers for their binding with the external lining of the pore. If necessary, FP-peptide blockers can be substituted in the presented assay by small fluorescently labeled ligands, and their affinities can be estimated by direct titration, using the approach ...

Kv1.3 = settings: cited from earlier work
Description: Table 1 Kd values obtained by direct titration of GFP-toxins or by their displacement with unlabeled ones and their comparison to our previous and literature data. | column: Kd or IC50, nM / Literature Data || Our approach was evaluated using several Kv1.3 ligands with known dissociation constants. These are unlabeled recombinant channel blockers from scorpion venom, AgTx2, ChTx, KTx and labeled GFP-tagged chimeras AgTx-GFP and ChTx-GFP. […] This is close to the values reported earlier: 0.21 nM for AgTx2-GFP in our system and 1.8–2.6 nM for ChTx (Table 1).

KcsA-Kv1.3-RFP [1] = test: Displacement of GFP-labeled toxins by unlabeled toxins on spheroplasts, flow cytometry; type: binding; settings: for Kd: displacement of AgTx2-GFP, Cheng-Prusoff, Mean ± SD, read-out: Apparent dissociation constant (Kap)
Description: (§1) Spheroplasts were prepared according to the previously developed protocol. Briefly, E. coli cells (BL21 (DE3) strain) transformed with pET28a-KcsA-Kv1.3-RFP plasmid were cultivated in a minimal M9 medium at 37 °C up to OD560 = 0.8, then induced with 50 μM IPTG and further grown for 18 h. Cells were harvested by centrifugation (5000× g, 10 min, 4 °C), incubated in buffer A (10 mM Tris–HCl, pH 8.0, 0.5 m sucrose) containing lysozyme (20 μg/mL) for 7 min on ice, then diluted twofold with buffer B (10 mM Tris–HCl, pH 8.0, 0.3 mM ethylenediamine tetraacetic acid) and further incubated for 20 min. Then MgCl2 was added to a final concentration of 10 mM to stabilize the spheroplasts. Obtained in this way, the spheroplast suspension has OD560 of about 0.5 and was diluted for binding assay as described further.
(§2) For ligand binding analysis, a series of ligand dilutions were prepared in 12 × 75 mm flow cytometry test tubes. For this, 45 µL of toxin solution with a ten times higher concentration than the maximal concentration on titration curve was prepared. This solution was serially diluted with 3.16-fold step (13.9 µL of toxin solution + 30 µL buffer). These toxin dilutions were supplemented with 270 µL of spheroplast suspension at 10^6 cells/mL to give 300 µL final reaction mixtures. For analysis of displacement of GFP-labeled toxins by unlabeled toxins, spheroplast suspensions were supplemented with 1.1× concentration of GFP-labeled toxin before mixing with unlabeled toxin dilutions. All dilutions were made in a binding buffer: 0.25 M sucrose, […], 2 mM KCl, 50 mM NaCl, 10 mM MgCl2, 0.2% BSA and 50 mM Tris–HCl, pH 7.5.
(§3) To ensure equilibrium conditions, we analyzed samples after 90–120 min of incubation without removing toxins. Data acquisition was carried out with FC-500 flow cytometer (Beckman Coulter, Brea, CA, USA) using 488 nm excitation for both GFP and RFP and fluorescence detection with FL1 (505–545 nm) and FL3 (610–630 nm) channels for GFP and RFP, respectively. To minimize background fluorescence, samples were run at low speed that gave approx. 100–500 events/s. Events were triggered by side scatting (SSC) so that RFP-labeled cells constituted approx. 30% of events (Figure 2). Remaining events were also present in the samples of filtered binding buffer without cells, so were likely to be related to system noise (either electronic or optical) but not to the dim spheroplasts.
(§4) Automated data analysis was performed by a dedicated script after pre-processing with commercial software. The script was available in user-friendly Jupyter notebook format where data were processed stepwise, and user input-output was realized through an internet browser. This script is designed to process multiple datasets at once and can be easily adjusted for someone’s actual needs.
Initial preprocessing was done with used FlowJo v10 software (Treestar Inc., Wilmington, DE, USA). This was used for gating on cells by forward and side scatter, followed by gating of RFP-positive events (Figure 1) and exporting of gated data in FCS format. This step was preferable since it allowed one to convert data into a conventional FCS format (our flow cytometer import data in LMD file format) and to filter out off-target events such as system noise, cell debris, clumped and untransfected cells (without Kv1.3-RFP in our case). We also created a script for this preprocessing but found it more complicated and less robust than commercial software. […]

KcsA-Kv1.3 = settings: ref Our Previous Data (Table 1); cited from earlier work
Description: Table 1 Kd values obtained by direct titration of GFP-toxins or by their displacement with unlabeled ones and their comparison to our previous and literature data. | column: Dissociation Constants, nM * / Our Previous Data || Our approach was evaluated using several Kv1.3 ligands with known dissociation constants. These are unlabeled recombinant channel blockers from scorpion venom, AgTx2, ChTx, KTx and labeled GFP-tagged chimeras AgTx-GFP and ChTx-GFP. […] This is close to the values reported earlier: 0.21 nM for AgTx2-GFP in our system and 1.8–2.6 nM for ChTx (Table 1).

[2] = system: hybrid Kv1-KcsA channels expressed in the E. coli membrane; settings: laser scanning confocal microscopy, competitive binding; cited from earlier work
Excerpt: In order to estimate the possibilities and limitations of the assay, the molecular details of blocker interaction with a natural and chimeric channel should be considered. The common feature of the peptide blocker binding is an occlusion of the pore with the side chain of a lysine residue, which is accompanied by the formation of multiple bonds between the peptide and amino acid residues surrounding the pore. Since the pore occlusion is the essential feature of any Kv1-channel blocker interacting with a channel at the extracellular side, the binding sites of peptide blockers and sm ...

KcsA-Kv1.3-RFP [3] = test: Direct titration of GFP-labeled toxins on spheroplasts by flow cytometry; type: binding
Description: as §1, §2, §3, §4
Initial preprocessing was done with used FlowJo v10 software (Treestar Inc., Wilmington, DE, USA). This was used for gating on cells by forward and side scatter, followed by gating of RFP-positive events (Figure 1) and exporting of gated data in FCS format. This step was preferable since it allowed one to convert data into a conventional FCS format (our flow cytometer import data in LMD file format) and to filter out off-target events such as system noise, cell debris, clumped and untransfected cells (without Kv1.3-RFP in our case). We also created a script for this preprocessing but found it more complicated and less robust than commercial software.
Filtered data were processed stepwise by a dedicated script, written in the Python programming language and available as a Jupyter notebook for running either on a local machine or in a kaggle data cloud (https://www.kaggle.com/georgesharonov/fcsgroupfit, accessed and executed on 14 November 2021). Data processing workflow was designed for high throughput analysis by processing all similar data in a single script execution. The processing steps were detailed within the notebook. […]

[4] = molecular target: T1, KcsA-Kv1.3 hybrid potassium channel tagged with a red fluorescent protein (TagRFP) (Homotetramer. Turret swap limits are not printed: taken from the known KcsA-Kv1.3 chimera design (ref. 8), KcsA 52-64 replaced by the gap-free aligned Kv1.3 segment (the same stretch is expected in mo)); test: flow cytometry on cells; same direct titration data; conventional analysis: mean or median of the RFP-positive minus the RFP-negative population; no saturation up to 100 nM, approach called inconsistent by the authors; settings: one partner purified
T1 chain: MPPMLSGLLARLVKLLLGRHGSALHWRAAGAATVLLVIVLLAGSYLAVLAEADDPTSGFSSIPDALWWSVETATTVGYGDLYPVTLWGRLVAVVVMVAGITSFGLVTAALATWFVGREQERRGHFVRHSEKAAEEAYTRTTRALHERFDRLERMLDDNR

[5] = molecular target: T1, KcsA-Kv1.3 hybrid potassium channel …; test: flow cytometry on cells; settings: one partner purified
[6] = molecular target: T1, KcsA-Kv1.3 hybrid potassium channel …; test: flow cytometry on cells; same direct titration data; slope of GFP against RFP by linear fit of all RFP-positive events, one-site fit; settings: one partner purified

Nc1ccncc1 [4-aminopiridine]
inhibition of Kv1 channels (Kv1 channels): inhibit Kv1 channels from the inside of the cell

CC[C@H](C)[C@@H]1NC(=O)[C@@H]2CSSC[C@@H]3NC(=O)[C@H](CCCCN)NC(=O)[C@H](CCCNC(=N)N)NC(=O)[C@H](CC(N)=O)NC(=O)[C@H](CCSC)NC(=O)[C@H](CSSC[C@H](NC(=O)[C@H](CO)NC(=O)[C@@H](NC(=O)[C@H](CC(N)=O)NC(=O)[C@@H](NC(=O)[C@@H]4CCCN4C(=O)[C@@H](NC(=O)CN)C(C)C)[C@@H](C)CC)C(C)C)C(=O)N[C@@H]([C@@H](C)O)C(=O)NCC(=O)N[C@@H](CO)C(=O)N4CCC[C@H]4C(=O)N[C@@H](CCC(N)=O)C(=O)N2)NC(=O)[C@H](CCCCN)NC(=O)CNC(=O)[C@H](Cc2ccccc2)NC(=O)[C@H](CCCNC(=N)N)NC(=O)[C@H](CCSC)NC(=O)CNC(=O)[C@H](C)NC(=O)[C@H](CC(=O)O)NC(=O)[C@H](CCCCN)NC(=O)[C@H](CSSC[C@@H](C(=O)N[C@H](C(=O)N2CCC[C@H]2C(=O)N[C@@H](CCCCN)C(=O)O)[C@@H](C)O)NC(=O)[C@H](Cc2c[nH]cn2)NC3=O)NC(=O)[C@@H]2CCCN2C(=O)[C@H](CCCCN)NC1=O [AgTx2, agitoxin 2]
Kd or IC50 (literature) (Kv1.3; ref 8): 6.4 nM
Kd or IC50 (literature) (Kv1.3; ref 18): 0.004 nM
Kd or IC50 (literature) (Kv1.3; ref 19): 0.2 nM
inhibition of binding of labeled ligands by excess unlabeled ligand (KcsA-Kv1.3-RFP [1]; 100 nM unlabeled AgTx2): completely inhibited
IC50 (KcsA-Kv1.3-RFP [1]; displacement of 1 nM AgTx2-GFP, Figure 4B curve, read-out: IC50 (displacement of 50% of the labeled ligand)): 0.7 nM
Kd (KcsA-Kv1.3-RFP [1]; n = 2): 0.1 ± 0.02 nM
fold by which binding constant is lower than that of the labeled variant (KcsA-Kv1.3-RFP [1]; unlabeled toxin vs its GFP-labeled variant): 2–4 times
Kd (KcsA-Kv1.3): 0.21 nM

CC[C@H](C)[C@H](NC(=O)[C@H](CCC(=O)O)NC(=O)[C@@H](NC(=O)CN)C(C)C)C(=O)N[C@@H](CC(N)=O)C(=O)N[C@H](C(=O)N[C@@H](CCCCN)C(=O)N[C@H]1CSSC[C@@H]2NC(=O)[C@H](CCCCN)NC(=O)CNC(=O)[C@H](Cc3ccccc3)NC(=O)[C@H](CCCNC(=N)N)NC(=O)[C@H](CCSC)NC(=O)CNC(=O)[C@H](C)NC(=O)[C@H](CC(=O)O)NC(=O)[C@H](CCCCN)NC(=O)[C@@H]3CSSC[C@@H](C(=O)N[C@H](C(=O)N4CCC[C@H]4C(=O)N[C@@H](CCCCN)C(=O)O)[C@@H](C)O)NC(=O)[C@H](Cc4c[nH]cn4)NC(=O)[C@H](CSSC[C@H](NC(=O)[C@H](CCC(N)=O)NC(=O)[C@@H]4CCCN4C(=O)[C@H](CO)NC(=O)CNC(=O)[C@H](CO)NC1=O)C(=O)N[C@@H](CC(C)C)C(=O)N[C@@H](CCCCN)C(=O)N1CCC[C@H]1C(=O)N3)NC(=O)[C@H](CCCCN)NC(=O)[C@H](CCCNC(=N)N)NC(=O)[C@H](CC(N)=O)NC(=O)[C@H](CCSC)NC2=O)C(C)C [KTx, kaliotoxin 1]
Kd or IC50 (literature) (Kv1.3; ref 21): 0.65 nM
Kd or IC50 (literature) (Kv1.3; ref 22): 0.02 nM
Kd or IC50 (literature) (Kv1.3; ref 23): 0.1 to 2 nM
Kd (KcsA-Kv1.3-RFP [1]; n = 3): 0.04 ± 0.02 nM
Kd (KcsA-Kv1.3): 0.78 nM

CC(C)/N=c1\cc2n(-c3ccc(Cl)cc3)c3ccccc3nc-2cc1Nc1ccc(Cl)cc1 [clofazimine]
inhibition of Kv1 channels (Kv1 channels): inhibit Kv1 channels from the inside of the cell

CC[N+](CC)(CC)CC [tetraethylammonium]
competitive ligand for Kv1-KcsA hybrid channels [2]: competitive ligand

AgTx2-GFP: AgTx2 tagged N-terminally with eGFP, moieties separated by a 45-aa linker L1; fluorescent probe ({eGFP-linker L1 (45 aa)}-GVPINVSCTGSPQCIKPCKDAGMRFGKCMNRKCHCTPK; ends and bridges not checked)
Kd (KcsA-Kv1.3): 0.21 nM
Slope, nonspecific binding (KcsA-Kv1.3-RFP [3]; 1 nM labeled toxin + 100 nM AgTx, fitting of all events): 0.49
Slope, nonspecific binding (KcsA-Kv1.3-RFP [3]; 1 nM labeled toxin + 100 nM AgTx, fitting of reduced data): 0.23
Slope (proportional to occupied receptor fraction) (KcsA-Kv1.3-RFP [3]; 1 nM labeled toxin, fitting of all events): 0.88
Slope (proportional to occupied receptor fraction) (KcsA-Kv1.3-RFP [3]; 1 nM labeled toxin, fitting of reduced data): 0.82
Slope, nonspecific binding (KcsA-Kv1.3-RFP [3]; 10 nM labeled toxin + 100 nM AgTx, fitting of all events): 0.54
Slope (proportional to occupied receptor fraction) (KcsA-Kv1.3-RFP [3]; 10 nM labeled toxin, fitting of all events): 0.95
Slope (proportional to occupied receptor fraction) (KcsA-Kv1.3-RFP [3]; 10 nM labeled toxin, fitting of reduced data): 0.9

B1: agitoxin 2 tagged N-terminally with eGFP (ligand)
chain: GVPINVSCTGSPQCIKPCKDAGMRFGKCMNRKCHCTPK
notes: The analogous ChTx-GFP was purified on Ni-NTA, so a His tag is likely here too; also called AgTx2-GFP; AgTx-GFP; source: design and production described earlier [14]; (plasmid pET23d-GFP-L1-AgTx2); not shown: eGFP (with the 45-aa linker L1), N-terminal, kept
Kd by the conventional mean/median analysis, which the authors reject [4]: 6 nM
Kd [5]: 0.2 nM

B2: agitoxin 2 (peptide)
chain: GVPINVSCTGSPQCIKPCKDAGMRFGKCMNRKCHCTPK
notes: also called AgTx2; source: recombinant, produced as described earlier [12] from plasmid pET23d-MalE-L1-AgTx2
Kd [5]: 0.1 nM

B3: kaliotoxin 1 (peptide)
chain: GVEINVKCSGSPQCLKPCKDAGMRFGKCMNRKCHCTPK
notes: also called KTx; source: recombinant, produced as described earlier [12] from plasmid pET23d-MalE-L1-KTx
Kd [5]: 0.04 nM

B4: charybdotoxin tagged N-terminally with eGFP (ligand)
chain: QFTNVSCTTSKECWSVCQRLHNTSRGKCMNKKCRCYS
notes: also called ChTx-GFP; GFP-L1-ChTx; source: E. coli Rosetta-gami (DE3) pLysS, pET23d-GFP-L1-ChTx, purified (Ni-NTA, PD-10 desalting); not shown: eGFP (with the linker L1), N-terminal, kept
Kd [6]: 0.86 nM
Kd by the conventional mean/median analysis, which the authors reject [4]: 32 nM
